# Earlier results, collected in patent publication US10329245B2, “Method for making a prenyl group-substituted tyrosine compound” (King Fahd University of Petroleum and Minerals, priority 2015, dated 2019).
# Where two headings read alike, the source gives them in different places.
# System: AGS (human gastric adenocarcinoma) cells
# Settings: AGS cell lines, p<0.01
smiles,measurement,setting,value
"CC(=O)N[C@@H](Cc1ccc(O)c(CC=C(C)C)c1)C(=O)O [compound 1, (S)-2-Acetamido-3-(4-hydroxy-3-(3-methylbut-2-enyl)phenyl)propanoic acid]","cell viability, % of control levels",75 μM compound 1 combined with 100 ng/mL TRAIL,77±7%
same,"cell viability, % of control levels",150 μM compound 1 combined with 100 ng/mL TRAIL,67±5%
